Common to all, as to type: in vivo
The test system of test [1] is Avena fatua (AVEFA). Briefly: Example A post-emergence herbicidal activity, glasshouse pot test. The conditions noted are these: 360 h, rate 500 g/ha, evaluated 15 days after spraying, read-out: herbicidal damage AVEFA (100=total damage to plant; 0=no damage to plant). The protocol:
(§1) Seeds of a variety of test species were sown in standard soil in pots. After cultivation for one day (pre-emergence) or after 10 days cultivation (post-emergence) under controlled conditions in a glasshouse, the plants were sprayed with an aqueous spray solution derived from the formulation of the technical active ingredient in 0.6 ml acetone and 45 ml formulation solution containing 10.6% Emulsogen EL (Registry number 61791-12-6), 42.2% N-methylpyrrolidone, 42.2% dipropylene glycol monomethyl ether (Registry number 34590-94-8) and 0.2% X-77 (Registry number 11097-66-8). The test plants were then grown in a greenhouse under optimum conditions until, 15 days later for post-emergence and 20 days for pre-emergence, the test was evaluated (100=total damage to plant; 0=no damage to plant). Alopecurus myosuroides (ALOMY), Avena fatua (AVEFA), Lolium perenne (LOLPE), Setaria faberi (SETFA), Digitaria sanguinalis (DIGSA), Echinochloa crus-galli (ECHCG) Post Emergency Activity

The subject of test [2] is Lolium perenne (LOLPE). Described as above. To be noted: 360 h, rate 500 g/ha, evaluated 15 days after spraying, read-out: herbicidal damage LOLPE (100=total damage to plant; 0=no damage to plant). As for the experimental part:
as §1

Test [3] relates to Setaria faberi (SETFA). Described as above. To be noted: 360 h, rate 500 g/ha, evaluated 15 days after spraying, read-out: herbicidal damage SETFA (100=total damage to plant; 0=no damage to plant). As for the experimental part: as §1
Test [4] deals with Alopecurus myosuroides (ALOMY). Described as above. To be noted: 360 h, rate 500 g/ha, evaluated 15 days after spraying, read-out: herbicidal damage ALOMY (100=total damage to plant; 0=no damage to plant). As for the experimental part:
as §1

The subject of test [5] is Digitaria sanguinalis (DIGSA). The test is described as above. To be noted: 360 h, rate 500 g/ha, evaluated 15 days after spraying, read-out: herbicidal damage DIGSA (100=total damage to plant; 0=no damage to plant). As for the experimental part: as §1
Test [6] has as its system Echinochloa crus-galli (ECHCG). The description is as above. To be noted: 360 h, rate 500 g/ha, evaluated 15 days after spraying, read-out: herbicidal damage ECHCG (100=total damage to plant; 0=no damage to plant). As for the experimental part: as §1
Test [7] has as its system Avena fatua (AVEFA). Briefly: Example A pre-emergence herbicidal activity, glasshouse pot test. The conditions noted are these: 480 h, rate 500 g/ha, evaluated 20 days later, 100=total damage to plant, 0=no damage to plant. The protocol: as §1, with “Pre-Emergence” for “Post Emergency”
The subject of test [8] is Lolium perenne (LOLPE). The test is described as above. To be noted: 480 h, rate 500 g/ha, evaluated 20 days later, 100=total damage to plant, 0=no damage to plant. The protocol: as §1, with “Pre-Emergence” for “Post Emergency”
For test [9], the system named is Setaria faberi (SETFA). Described as above. The conditions noted are these: 480 h, rate 500 g/ha, evaluated 20 days later, 100=total damage to plant, 0=no damage to plant. As for the experimental part:
as §1, with “Pre-Emergence” for “Post Emergency”

For test [10], the system named is Alopecurus myosuroides (ALOMY). Described as above. To be noted: 480 h, rate 500 g/ha, evaluated 20 days later, 100=total damage to plant, 0=no damage to plant. As for the experimental part: as §1, with “Pre-Emergence” for “Post Emergency”
Test [11] has as its system Digitaria sanguinalis (DIGSA). The test is described as above. To be noted: 480 h, rate 500 g/ha, evaluated 20 days later, 100=total damage to plant, 0=no damage to plant. As for the experimental part: as §1, with “Pre-Emergence” for “Post Emergency”
For test [12], the system named is Echinochloa crus-galli (ECHCG). Described as above. The conditions noted are these: 480 h, rate 500 g/ha, evaluated 20 days later, 100=total damage to plant, 0=no damage to plant. The protocol: as §1, with “Pre-Emergence” for “Post Emergency”

Here are results for ten compounds from patent publication US8735322B2, “Herbicides” (Syngenta Limited, priority 2008, dated 2014).

As for `Cc1ccc(-c2ccc(Cl)cc2)cc1C1=C(O)CC(CC2CCOC2)CC1=O` (stereo not shown) [Compound A-2], the pest or weed control at 500 g/ha came out at 40% with Avena fatua (AVEFA) [1]; 50% in the test with Lolium perenne (LOLPE) [2]; 90% in the test on Setaria faberi (SETFA) [3]; 70% in test [4]; 90% in test [5]; 100% in [6]. The pest or weed control at 500 g/ha with Avena fatua (AVEFA) [7] came out at 40%; in the test on Lolium perenne (LOLPE) [8], 10%; in the test with Setaria faberi (SETFA) [9], 60%; in test [10], 20%; in [11], 50%; in test [12] it was 100%.

In the case of `CCc1cc(C)cc(CC)c1C1=C(O)CC(CC2CCOC2)CC1=O` (stereo not shown) [Compound A-3], the pest or weed control at 500 g/ha was 80% in the test on Avena fatua (AVEFA) [1]; 80% with Lolium perenne (LOLPE) [2]; 80% with Setaria faberi (SETFA) [3]; 80% in [4]; 100% in [5]; 100% in test [6]. Besides, the pest or weed control at 500 g/ha in the test on Avena fatua (AVEFA) [7] is 90%; in the test on Lolium perenne (LOLPE) [8] it was 100%; in the test with Setaria faberi (SETFA) [9] it was 100%; in [10], 80%; in [11] it was 100%; in test [12], 100%.

On to `CCc1ccc(-c2ccc(Cl)cc2)cc1C1=C(O)CC(CC2CCOC2)CC1=O` (stereo not shown) [Compound A-4], for which the pest or weed control at 500 g/ha in the test with Avena fatua (AVEFA) [1] was 70%; in the test with Lolium perenne (LOLPE) [2], 70%; in the test on Setaria faberi (SETFA) [3], 100%; in test [4] it was 80%; in test [5], 100%; in test [6], 100%. Also, the pest or weed control at 500 g/ha worked out at 40% in the test with Avena fatua (AVEFA) [7]; 30% in the test with Lolium perenne (LOLPE) [8]; 80% in the test on Setaria faberi (SETFA) [9]; 60% in test [10]; 70% in test [11]; 100% in test [12].

For `CCc1cc(C)cc(CC)c1C1=C(O)CC(CC2CCOCC2)CC1=O` (stereo not shown) [Compound A-5, 2-(2,6-diethyl-4-methylphenyl)-5-(tetrahydropyran-4-ylmethyl)cyclohexane-1,3-dione], the pest or weed control at 500 g/ha with Avena fatua (AVEFA) [1] was 90%; in the test with Lolium perenne (LOLPE) [2] it was 90%; with Setaria faberi (SETFA) [3], 100%; in test [4] it was 90%; in test [5], 90%; in test [6], 100%. The pest or weed control at 500 g/ha (with Avena fatua (AVEFA) [7]; with Lolium perenne (LOLPE) [8]; with Setaria faberi (SETFA) [9]; in [10]; in [11]; in test [12]) was 100% each time.

For `CCc1cc(C)cc(CC)c1C1=C(O)CC(CC2OCCO2)CC1=O` (stereo not shown) [Compound A-6, 2-(2,6-diethyl-4-methylphenyl)-5-([1,3]dioxolan-2-ylmethyl)cyclohexane-1,3-dione], the pest or weed control at 500 g/ha with Avena fatua (AVEFA) [1] is 100%; with Lolium perenne (LOLPE) [2], 80%; in the test on Setaria faberi (SETFA) [3], 80%; in test [4], 80%; in test [5], 90%; in [6] it was 100%. Also, the pest or weed control at 500 g/ha with Avena fatua (AVEFA) [7] stood at 60%; with Lolium perenne (LOLPE) [8] it was 70%; in the test with Setaria faberi (SETFA) [9], 80%; in test [10], 90%; in [11], 100%; in test [12], 100%.

For the compound `CCc1cc(C)cc(CC)c1C1=C(O)CC(CC2OCCCO2)CC1=O` (stereo not shown) [Compound A-7], the pest or weed control at 500 g/ha amounted to 100% with Avena fatua (AVEFA) [1]; 90% in the test with Lolium perenne (LOLPE) [2]; 80% in the test on Setaria faberi (SETFA) [3]; 90% in test [4]; 80% in test [5]; 100% in [6]. Moreover, the pest or weed control at 500 g/ha in the test on Avena fatua (AVEFA) [7] was 100%; with Lolium perenne (LOLPE) [8], 100%; in the test on Setaria faberi (SETFA) [9], 80%; in test [10], 100%; in test [11], 100%; in test [12], 100%.

For `CCc1cc(C)cc(CC)c1C1=C(O)CC(CC2OCC(C)(C)CO2)CC1=O` (stereo not shown) [Compound A-8], the pest or weed control at 500 g/ha with Avena fatua (AVEFA) [1] stood at 50%; in the test on Lolium perenne (LOLPE) [2] it was 80%; in the test with Setaria faberi (SETFA) [3], 70%; in [4] it was 60%; in test [5], 70%; in test [6], 100%. Further, the pest or weed control at 500 g/ha in the test on Avena fatua (AVEFA) [7] worked out at 50%; with Lolium perenne (LOLPE) [8] it was 100%; in the test with Setaria faberi (SETFA) [9], 70%; in test [10], 100%; in test [11] it was 100%; in [12] it was 70%.

Turning to `Cc1cc(C)c(C2=C(O)CC(CC3CCOCC3)CC2=O)c(C)c1` (stereo not shown) [Compound A-9], the pest or weed control at 500 g/ha in the test on Avena fatua (AVEFA) [1] turned out to be 70%; in the test with Lolium perenne (LOLPE) [2], 80%; in the test with Setaria faberi (SETFA) [3], 80%; in [4], 80%; in [5] it was 70%; in test [6], 90%. Moreover, the pest or weed control at 500 g/ha worked out at 60% in the test with Avena fatua (AVEFA) [7]; 100% with Lolium perenne (LOLPE) [8]; 90% in the test with Setaria faberi (SETFA) [9]; 100% in test [10]; 100% in test [11]; 70% in test [12].

For `CCc1cc(CC)c(C2=C(O)CC(C(C)C3CCOCC3)CC2=O)c(CC)c1` (stereo not shown) [Compound A-12], the pest or weed control at 500 g/ha in the test on Avena fatua (AVEFA) [1] came out at 80%; in the test on Lolium perenne (LOLPE) [2], 80%; in the test with Setaria faberi (SETFA) [3] it was 70%; in test [4], 80%; in [5], 70%; in test [6], 80%. Further, the pest or weed control at 500 g/ha in the test on Avena fatua (AVEFA) [7] was determined as 40%; in the test on Lolium perenne (LOLPE) [8], 100%; in the test with Setaria faberi (SETFA) [9], 60%; in test [11], 70%; in test [12], 70%.

With `CCc1cc(C)cc(CC)c1C1=C(O)CC(CC2CC[S+]([O-])CC2)CC1=O` (stereo not shown) [Compound A-16], the pest or weed control at 500 g/ha in the test with Avena fatua (AVEFA) [1] turned out to be 90%; in the test with Lolium perenne (LOLPE) [2] it was 90%; in the test on Setaria faberi (SETFA) [3], 80%; in test [4], 60%; in test [5], 100%; in [6], 70%. The pest or weed control at 500 g/ha with Avena fatua (AVEFA) [7] is 90%; in the test on Lolium perenne (LOLPE) [8], 100%; in test [10] it was 100%; in test [11], 100%; in test [12], 100%.
